Test results reported in patent publication US20100209486A1, “Method of enhancing CoenzymeQ10 levels in mammals” (priority 2009, published 2010).
Values joined by “and” are separate entries in the source; they are usually repeats but may differ in a detail not shown here. Equal values may be shown once. Marks after values point to notes of the source that are not given here.

Columns and labels:
[1] = test system: isolated guinea pig hearts; assay: Reperfusion-induced ventricular fibrillation in isolated ischemic/reperfused hearts from orally treated guinea pigs; type: in vivo; settings: 5 mg/kg/day oral for 4 weeks; 30 min global ischemia then reperfusion; drug-free control 92%
Procedure: FIG. 1. The incidence of reperfusion-induced ventricular fibrillation (VF). Guinea pigs were orally treated with a daily dose of 5 mg/kg of CoQ10 or CoQ9 or vehicle control for 4 weeks, and then hearts were excised, and isolated for perfusion via Langendorff mode and subjected to 30 min of global ischemia followed by 120 min of reperfusion. N=12 in each group, *p<0.05 compared to the drug-free control (C) group.
Experimental studies were designed to determine if CoQ9 could protect guinea pig hearts from ischemia reperfusion injury. Myocardial ischemia reperfusion injury model is the most widely accepted experimental method for assessment of parameters related to cardio-protection. […] Cardioprotection was assessed by evaluating left ventricular function, ventricular arrhythmias, myocardial infarct size and cardiomyocyte apoptosis.
Protective effect of CoQ9 and CoQ10 against from Ventricular Fibrillation (VF): Healthy Male Hartley guinea pigs of about 350-400 gm body weight were randomly divided into three groups, Control, CoQ9 and CoQ10. […] Epicardial ECG was recorded through out the experiment, by attaching two silver electrodes directly to the myocardium and data collected using a data acquisition system (ADInstruments, Powerlab, Castle Hill, Australia). ECGs were analyzed to determine ventricular fibrillation (VF) and ventricular tachycardia (VT). […]

[2] = test system: isolated guinea pig hearts; assay: Recovery of post-ischemic cardiac function (HR, CF, AF, LVDP) in isolated working guinea pig hearts; type: in vivo; settings: 5 mg/kg/day oral for 4 weeks; for aortic flow (AF), After 60 min of RE / coronary flow (CF), After 60 min of RE / heart rate (HR), After 60 min of RE / left ventricular developed pressure (LVDP), After 60 min of RE / aortic flow (AF), After 120 min of RE / coronary flow (CF), After 120 min of RE / heart rate (HR), After 120 min of RE / left ventricular developed pressure (LVDP), After 120 min of RE: 30 min ischemia; for aortic flow (AF), After 60 min of RE / coronary flow (CF), After 60 min of RE / heart rate (HR), After 60 min of RE / left ventricular developed pressure (LVDP), After 60 min of RE: 60 min reperfusion; for aortic flow (AF), After 120 min of RE / coronary flow (CF), After 120 min of RE / heart rate (HR), After 120 min of RE / left ventricular developed pressure (LVDP), After 120 min of RE: 120 min reperfusion; for aortic flow (AF), Before ISA / heart rate (HR), Before ISA / left ventricular developed pressure (LVDP), Before ISA / coronary flow (CF), Before ISA: isolated heart before ischemia
Procedure: Experimental studies were designed to determine if CoQ9 could protect guinea pig hearts from ischemia reperfusion injury. Myocardial ischemia reperfusion injury model is the most widely accepted experimental method for assessment of parameters related to cardio-protection. Guinea pigs were randomly divided into three groups: Group II and Group III were supplemented with 5 mg/kg bodyweight of CoQ9 and CoQ10, respectively, for 4 weeks while Group I served as control (C). After 4 weeks, the guinea pigs were sacrificed and the isolated hearts were perfused via working mode. The isolated hearts were subjected to ischemia for 30 min followed by 2 hours of reperfusion. Cardioprotection was assessed by evaluating left ventricular function, ventricular arrhythmias, myocardial infarct size and cardiomyocyte apoptosis.
Similar types of post-ischemic recovery of HR, CF, and LVDP were registered (Table 1) in isolated hearts obtained from guinea pigs treated with 5 mg/kg/day of CoQ10 or CoQ9 for 4 weeks. The improvement in post-ischemic cardiac function (HR, CF, AF, and LVDP) was more pronounced in the CoQ9 treated group than in the CoQ10 treated group.
Protective effect of CoQ9 and CoQ10 against from Ventricular Fibrillation (VF): Healthy Male Hartley guinea pigs of about 350-400 gm body weight were randomly divided into three groups, Control, CoQ9 and CoQ10. The guinea pigs were given orally 5 mg/kg body weight [in 0.5 ml water] of vehicle only, CoQ9 or CoQ10 respectively by gavage once a day. […] Treatment was continued for 30 days, the animals had free access to food and water. After 30 days, all animals were anesthetized, heparinized and sacrificed. The hearts excised, and isolated for perfusion via Langendorff mode for 5 min of washout period of the Langendorff heart perfusion, the pulmonary vein was cannulated, and the heart was switched to the “working” mode via perfusion of the left atria (at a filling pressure of 17 cm of the buffer, 1.7 kPa) as it was described in detail elsewhere. Global ischemia was imposed by clamping the atrial and aortic cannulas. Epicardial ECG was recorded through out the experiment, by attaching two silver electrodes directly to the myocardium and data collected using a data acquisition system (ADInstruments, Powerlab, Castle Hill, Australia). ECGs were analyzed to determine ventricular fibrillation (VF) and ventricular tachycardia (VT). The first 10 min of reperfusion was done in Langendorf (‘nonworking’) mode in order to avoid the development of reperfusion-induced VT and VF during the ‘working’ heart reperfusion. After the initial 2 min of VT or/and VF (sustained VF) in Langendorff reperfusion, hearts were defibrillated (if it was necessary), reperfused for an additional 8 min in Langendorff mode, and switched to ‘working heart’ reperfusion, and myocardial function was recorded. The heart was considered to be in VF if an irregular undulating baseline was apparent on the ECG. The data of VT, VF and sinus rhythm show their durations (in seconds) within the first 120 s of nonworking Langendorff reperfusion. The incidences of reperfusion-induced ventricular fibrillation (VF) for CoQ9 and CoQ10 are depicted in FIG. 1. […] Incidence of VF was reduced from 92% (control group) to 25% (*p<0.05) and 8% (*p<0.05) with 5 mg/kg/day of CoQ10 and CoQ9, respectively.
CoQ9 and CoQ10 treatment improves post-ischemic cardiac function (HR, CF, AF, and LVDP): Animal preparation, drug pretreatment and isolated working heart preparation were done as described in example 1. The isolated hearts obtained from group II and Group III guinea pigs treated with 5 mg/kg/day of […], for 4 weeks were subjected to 30 min ischemia followed by 120 min of reperfusion. […]

| Compound | incidence of reperfusion-induced ventricular fibrillation (VF) [1] [%] | aortic flow (AF), After 60 min of RE [2] | coronary flow (CF), After 60 min of RE [2] | heart rate (HR), After 60 min of RE [2] | left ventricular developed pressure (LVDP), After 60 min of RE [2] | aortic flow (AF), After 120 min of RE [2] | heart rate (HR), After 120 min of RE [2] [beats/min] | aortic flow (AF), Before ISA [2] [mL/min] | heart rate (HR), Before ISA [2] [beats/min] | left ventricular developed pressure (LVDP), Before ISA [2] [mm Hg] | also measured |
| --- | --- | --- | --- | --- | --- | --- | --- | --- | --- | --- | --- |
| COC1=C(OC)C(=O)C(C/C=C(\C)CC/C=C(\C)CC/C=C(\C)CC/C=C(\C)CC/C=C(\C)CC/C=C(\C)CC/C=C(\C)CC/C=C(\C)CC/C=C(\C)CCC=C(C)C)=C(C)C1=O [CoQ10, Coenzyme Q10, reference compound] | 25 | 20 ± 2* ml/min | 20 ± 1* ml/min | 228 ± 3* beats/min | 71 ± 3* mm Hg | 18.0 ± 2.0 mL/min and 18 ± 2 mL/min | 217±3 | 34 ± 2 | 261 ± 6 | 100 ± 5 | coronary flow (CF), After 120 min of RE [2]: 19 ± 1 mL/min; left ventricular developed pressure (LVDP), After 120 min of RE [2]: 64±3 mm Hg; aortic flow (AF), After 120 min of RE ([2]; listed as Q10): 18 ± 2* ml/min; coronary flow (CF), After 120 min of RE ([2]; listed as Q10): 19 ± 1* ml/min; heart rate (HR), After 120 min of RE ([2]; listed as Q10): 217 ± 3* beats/min; left ventricular developed pressure (LVDP), After 120 min of RE ([2]; listed as Q10): 64 ± 3* mm Hg; coronary flow (CF), Before ISA ([2]; listed as CoQ 10): 25 ± 2 mL/min; coronary flow (CF), Before ISA ([2]; listed as Q10): 25 ± 2 mL/min |
| COC1=C(OC)C(=O)C(C/C=C(\C)CC/C=C(\C)CC/C=C(\C)CC/C=C(\C)CC/C=C(\C)CC/C=C(\C)CC/C=C(\C)CC/C=C(\C)CCC=C(C)C)=C(C)C1=O [CoQ9, Coenzyme Q9] | 8 | 27 ± 1* ml/min | 22 ± 2* ml/min | 240 ± 4* beats/min | 80 ± 2* mm Hg | 26.0 ± 1.0 mL/min | 233±4 | 35 ± 2 | 248 ± 5 | 106 ± 4 | aortic flow (AF), After 120 min of RE ([2]; listed as CoQ 9): 26 ± 1 mL/min; coronary flow (CF), After 120 min of RE ([2]; listed as CoQ 9): 25 ± 2 mL/min; left ventricular developed pressure (LVDP), After 120 min of RE ([2]; listed as CoQ 9): 75±2 mm Hg; aortic flow (AF), After 120 min of RE ([2]; listed as Q9): 26 ± 1* ml/min; coronary flow (CF), After 120 min of RE ([2]; listed as Q9): 25 ± 2* ml/min; heart rate (HR), After 120 min of RE ([2]; listed as Q9): 233 ± 4* beats/min; left ventricular developed pressure (LVDP), After 120 min of RE ([2]; listed as Q9): 75 ± 2* mm Hg; coronary flow (CF), Before ISA [2]: 23 ± 2 mL/min; coronary flow (CF), Before ISA ([2]; listed as Q9): 23 ± 2 mL/min |
